Laboratory results: patent US20230035479A1, “METHODS AND COMPOSITIONS FOR REDUCING HAIR GREYING” (President and Fellows of Harvard College, priority 2019, published 2023)

Key:
[1] = tested on: melanocyte stem cells (MeSCs); experiment: Apoptosis (active caspase-3, TUNEL) and DNA damage (gamma-H2AX) in MeSCs; type: in vivo, mouse
Description: Radiation causes DNA damage in MeSCs, leading to their differentiation within the niche.
Mouse skin samples were fixed using 4% paraformaldehyde (PFA) for 15 minutes at room temperature, washed 6 times with PBS, and immersed in 30% sucrose overnight at 4° C. Samples were then embedded in OCT (Sakura Finetek). 35˜50 μm sections were fixed in 4% paraformaldehyde (PFA) for 2 minutes and washed with PBS and PBST. Slides were then blocked using blocking buffer (5% donkey serum; 1% BSA, 2% cold water fish gelatin in 0.3% Triton in PBS) for 1 hour at room temperature, followed by staining with primary antibodies overnight at 4° C. and secondary antibody for 4 hours at room temperature. For sympathetic nerve density quantification, 90 μm sections were used. EdU was developed for 1 hour using the Click-It reaction according to manufacturer instructions (Thermo Fisher Scientific). TUNEL assay was performed according to manufacturer instructions (Roche). Fontana—Masson staining was performed according to manufacturer instructions (Market Lab ML7255). Antibodies used: TRP2 (Santa Cruz 10451, 1:800), tyrosine hydroxylase (rabbit, Millipore AB152, 1:1000 or sheep, Millipore AB1542, 1:150-1:300), c-Fos (Abcam, 190289, 1:1000), γ-H2AX (Cell Signaling, 9718, 1:400), phospho-histone H3 (rabbit, Cell Signaling Technology 3377S, 1:500), cleaved caspase 3 (rabbit, Cell Signaling Technology 9664S, 1:400), GFP (rabbit, Abcam ab290, 1:1000 or chicken, Ayes labs GFP-1010, 1:200), CD3 (eBioscience 14-0032-81, 1:800), CD11b (eBioscience 14-0112-81, 1:800), Phospho-CREB (Cell Signaling 9198, 1:800), MITF (Abcam ab12039, 1:400).

[2] = tested on: melanocyte stem cells (MeSCs); experiment: RNA-seq of FACS-purified MeSCs; type: in vivo, mouse; settings: 12 hours after RTX injection
Description: Examination of marker gene expression for diverse skin cell types confirmed successful enrichment for MeSCs (FIG. 12D). To uncover major molecular changes, Gene Ontology (GO) enrichment analysis was conducted (FIG. 5B). A list of known genes associated with MeSC proliferation and differentiation was curated (FIG. 5C, FIG. 12E). Moreover, a list of genes previously denoted for cell cycle entry was utilized to assess if cell cycle regulators are altered at the transcriptional level (FIG. 12F). Some of these key changes were also verified by quantitative RT-PCR (qRT-PCR) (FIG. 12G). […]
MeSCs were purified using FACS from control and stressed mice skin samples at telogen based on their expression of CD117 [7], starting from a population that is negative for CD140a, CD45, Sca1, and CD34 [57]. […] Single-end sequencing reads were obtained using Illumina NextSeq 500 platform. Sequencing reads from RNA-seq libraries were trimmed using Trim Galore! […] Reads with alignment quality <Q30 were discarded. Gene expression levels were normalized and differential genes were calculated using DEseq2 package in R [60]. […] Transcripts Per Kilobase Million (TPM) calculated from count tables of Control MeSC samples were used to determine the expression levels of adrenergic receptors and glucocorticoid receptor shown in FIG. 2C.

[3] = tested on: melanocyte stem cells (MeSCs); experiment: MeSC proliferation, Phospho-Histone H3 immunofluorescence; settings: within 24 hours after injection, full anagen
Description: To examine if stress alters MeSCs quiescence, RTX or norepinephrine was injected into mice that had entered full anagen, when MeSCs are normally quiescent.
For RTX injection, mice received injections of RTX (30-100 μg/kg) in the flank for 1-3 days as described previously [15, 16, 51-56]. […] Control mice were treated with the vehicle only. RTX injection was done either in full anagen (P31-P36) or in 1st telogen (P21). […] RTX was given at Anagen VI (P31˜P36).
All images were acquired using a Zeiss LSM 880 confocal microscope or Keyence microscope using ×20 or ×40 magnification lenses. Images are presented as Maximum Intensity Projection images. For colocalization analysis, images are presented as a single Z stack.

[4] = tested on: sympathetic neurons; experiment: c-FOS immunofluorescence in sympathetic ganglia; type: in vivo, mouse; settings: after RTX injection

SMILES: C=C(C)[C@]12C[C@@H](C)[C@@]34O[C@](Cc5ccccc5)(O[C@@H]1[C@@H]3C=C(COC(=O)Cc1ccc(O)c(OC)c1)C[C@]1(O)C(=O)C(C)=C[C@@H]41)O2 [RTX, resiniferatoxin]
- active caspase-3 or TUNEL signals in MeSCs ([1]; before MeSC depletion from the niche, 1 day after injection): failed to detect active caspase-3 or TUNEL signals
- gamma-H2AX foci (DNA damage) in MeSCs ([1]; following injection): failure to detect gamma-H2AX foci
- transcriptome changes in MeSCs [2]: upregulate proliferation and differentiation programs
- MeSCs positive for Phospho-Histone H3 [3]: about 50%
- c-FOS induction in cell bodies of sympathetic neurons [4]: Robust c-FOS induction
- time at which c-FOS induction diminishes [4]: > 24 h
- time of peak c-FOS induction [4]: 2 to 4 h
- time to c-FOS induction [4]: ≤ 1 h
